Experimental findings from patent publication US20120328549A1, “OIL COMPOSITIONS” (ANTERIOS, INC., priority 2011, published 2012) are described below.

For this assay, the system named is Axillary Sweating. Put plainly: Clinical study of axillary sweating by gravimetric sweat measurement, double-blind versus placebo (water). The format is in vivo, human. From the text: The purpose of the study was to determine if Labrafac® Lipophile WL 1349 is biologically active in reducing sweating. […] Some subjects received treatment with the potentially biologically active substance and some subjects received treatment with a placebo, i.e. water. Neither the subject nor the investigator knew which treatment the subject was receiving.
Two weeks after a single treatment, subjects were re-assessed by gravimetric sweat measurement to determine the degree of sweat reduction. A comparison of post-treatment sweat production between the treatment groups was made to determine the degree of sweat reduction by the potentially biologically active substance.
• able to understand and give written informed consent • ages 18-70 years of age • diagnosis of moderate to severe primary axillary hyperhidrosis • Hyperhidrosis Disease Severity Scale score of >3 (the HDSS scale is described below) • >50 mg of sweat production/axilla in 5 minutes as measured gravimetrically • willingness to use only over-the-counter deodorants during the course of the study • willingness to shave underarms prior to each study visit • female subjects must have a negative urine pregnancy test and be non-lactating at the initial (“Baseline”) study site visit • patients should be in good general health as determined by the investigator and free of any disease that may interfere with study evaluations
The sweat production of the subject is measured gravimetrically by the following procedure: • The subject was placed in a room with relatively constant temperature and humidity for at least 30 min. • The subject was placed in a semi-reclining position with the axilla fully exposed and the arm resting comfortably above the head. • The subject's axilla was dried gently with a cotton gauze pad. • The investigator used a forceps to place one filter paper (90 mm diameter) on a balance sensitive to 0.1 mg and recorded its weight. • The investigator used a forceps to place the measured filter paper on the axilla, covered it with plastic and taped the edges of the bag against the subject's skin with hypoallergenic tape to form a seal around the plastic bag. • After 5 minutes, the investigator gently removed the tape and plastic from the subject's axilla and then, using forceps, immediately placed the filter paper onto the scale to record its weight. The scale was then dried and zero balanced. • This measurement was then repeated as described above with the other axilla.
If the subject was eligible for treatment on this basis, the subject was then treated. For treatment, one of the study preparations (0.3 mL/axilla) was applied topically with a gloved finger by the investigator to the subject's skin of the axilla. The preparation was administered in small increments to avoid run-off. The liquid was rubbed-in until vanished. […]
The subject was scheduled for a follow-up office visit two weeks after the treatment. At the follow-up office visit, the subject was questioned as to their compliance with the instructions regarding which medications not to use between treatment and the two week follow-up office visit. […] If the subject was compliant, the subject was re-assessed using the gravimetric sweat measurement procedure.
The study was conducted at multiple study sites and conducted in compliance with Good Clinical Practice standards. […] Two weeks after the treatment, each subject was re-assessed by gravimetric sweat measurement. […]

For the compound `CCCCCCCCCCCCCC(=O)OC(C)C` [Isopropyl Myristate], the “greater effectiveness in reducing sweat production than subjects treated with placebo” value (1.89 mg per axilla topical, based on share of subjects with at least 30% reduction) is 191%. For the setting “1.89 mg per axilla topical, two weeks after treatment”, the “conclusion on activity in reducing sweat production” value was “biologically active in reducing sweat production”. Further, the “percent of subjects with at least a 30% reduction in sweat production compared to Baseline” value (1.89 mg per axilla topical, two weeks after treatment, control group 29%) turned out to be 55%. Further, the “greater reduction in sweat production than the subjects in the control group” value (1.89 mg per axilla topical, two weeks after treatment, versus placebo (53 mg reduction)) is 195%. For the same compound, the “reduction in sweat production (average) as measured by gravimetric sweat measurement” value (subjects with primary axillary hyperhidrosis, single topical treatment, 1.89 mg per axilla, two weeks after treatment, 5 minute collection) is 103 mg.
